Measured values as given in article PMC6934184, “Selective DNA-PKcs inhibition extends the therapeutic index of localized radiotherapy and chemotherapy” (The Journal of Clinical Investigation, 2019).

Target: T1, PIM2 (Homo sapiens, UniProt Q9P1W9)
T1 construct: purchased Thermo Fisher Scientific (Life Technologies) SelectScreen
Experiment: SelectScreen Z'LYTE
Type: biochemical
Outline: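 Percent values come from Thermo SelectScreen profiling of NU5455, combining activity and binding assays. CSF1R was run in Z'LYTE format at Km app ATP, and CAMK1 in Adapta format with ATP listed at 10.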

T1 sequence (Q9P1W9 whole entry): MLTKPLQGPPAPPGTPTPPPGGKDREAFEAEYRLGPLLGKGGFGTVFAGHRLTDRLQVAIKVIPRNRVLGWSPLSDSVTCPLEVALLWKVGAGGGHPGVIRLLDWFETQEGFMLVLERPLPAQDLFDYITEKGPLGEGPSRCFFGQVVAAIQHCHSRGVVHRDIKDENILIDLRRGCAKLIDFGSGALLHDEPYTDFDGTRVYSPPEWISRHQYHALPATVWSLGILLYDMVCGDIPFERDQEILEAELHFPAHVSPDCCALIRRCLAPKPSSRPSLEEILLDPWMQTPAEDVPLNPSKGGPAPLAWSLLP

CN(C(=O)CN1CCOCC1)c1ccc2sc3c(-c4cccc5c(=O)cc(N6CC7CCC(C6)O7)oc45)cccc3c2c1 [NU5455]
inhibition at 1 µM: -4.3%
